The numbers were not newly measured in patent publication US20230117831A1, “MULTI-FUNCTIONAL CHIMERIC MOLECULES” (THE BROAD INSTITUTE, INC., priority 2020, published 2023), which cites them from elsewhere.

Usually Kd stands for the constant that tells how readily two partners part at equilibrium.

Several values for one entry are separate records, joined by “and”; a condition that tells them apart may be missing. Equal values may be shown once. Read-outs that look alike come from different tables or passages of the source.

One data set addresses PKCalpha (Homo sapiens, UniProt P17252). Conditions: cited from earlier work.
A further data set has as its target PKC beta (Homo sapiens, UniProt P05771). Conditions: PKC beta; read-out: Kd; cited from earlier work.
Another data set has as its target PKC gamma (Homo sapiens, UniProt P05129). Conditions: cited from earlier work.
In another data set the target is PKC delta (Homo sapiens, UniProt Q05655). Conditions: PKC delta; read-out: Kd; cited from earlier work.
The target in the next data set is T1, PKC epsilon (Homo sapiens, UniProt Q02156).
T1 sequence (Q02156 1-737): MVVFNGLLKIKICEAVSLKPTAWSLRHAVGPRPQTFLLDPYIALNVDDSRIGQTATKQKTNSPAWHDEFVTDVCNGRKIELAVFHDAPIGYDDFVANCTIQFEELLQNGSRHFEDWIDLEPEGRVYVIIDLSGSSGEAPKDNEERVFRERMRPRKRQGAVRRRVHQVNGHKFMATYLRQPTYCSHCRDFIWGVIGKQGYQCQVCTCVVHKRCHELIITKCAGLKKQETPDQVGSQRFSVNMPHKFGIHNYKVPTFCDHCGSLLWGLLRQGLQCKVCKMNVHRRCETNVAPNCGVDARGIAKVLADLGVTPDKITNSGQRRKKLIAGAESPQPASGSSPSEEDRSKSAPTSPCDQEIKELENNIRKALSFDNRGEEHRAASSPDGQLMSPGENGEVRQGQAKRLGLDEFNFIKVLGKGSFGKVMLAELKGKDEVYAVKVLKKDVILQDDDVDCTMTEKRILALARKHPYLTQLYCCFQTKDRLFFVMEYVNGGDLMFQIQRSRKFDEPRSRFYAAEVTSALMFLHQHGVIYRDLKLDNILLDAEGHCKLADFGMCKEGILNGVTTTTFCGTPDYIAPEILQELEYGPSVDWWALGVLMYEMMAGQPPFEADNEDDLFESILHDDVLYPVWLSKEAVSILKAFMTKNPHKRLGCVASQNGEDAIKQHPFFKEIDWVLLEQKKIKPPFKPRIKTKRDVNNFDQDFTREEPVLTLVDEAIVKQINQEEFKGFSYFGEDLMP
Conditions: PKC epsilon; read-out: Kd; cited from earlier work.

The target in a further data set is PIK3Cα/PIK3R1 (Homo sapiens, UniProt P42336). Conditions: cited from earlier work.
The target of another data set is T2, AurA (AURKA) (Homo sapiens, UniProt O14965).
T2 sequence (O14965 1-403): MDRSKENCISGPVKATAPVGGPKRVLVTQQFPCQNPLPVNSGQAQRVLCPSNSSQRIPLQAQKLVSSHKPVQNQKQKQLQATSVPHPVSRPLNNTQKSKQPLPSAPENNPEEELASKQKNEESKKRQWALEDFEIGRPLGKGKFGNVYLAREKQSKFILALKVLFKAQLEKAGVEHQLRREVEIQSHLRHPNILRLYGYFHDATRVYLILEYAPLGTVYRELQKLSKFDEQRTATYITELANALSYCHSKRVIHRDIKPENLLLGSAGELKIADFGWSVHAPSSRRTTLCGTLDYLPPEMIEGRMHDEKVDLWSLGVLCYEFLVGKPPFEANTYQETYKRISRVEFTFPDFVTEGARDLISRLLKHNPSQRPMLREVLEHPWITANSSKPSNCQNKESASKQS
Conditions: cited from earlier work.

For the next data set, the target named is PIK3Cδ/PIK3R1 (Homo sapiens, UniProt O00329). Conditions: cited from earlier work.
For another data set, the target named is PIK3Cγ (Homo sapiens, UniProt P48736). Conditions: cited from earlier work.

Chain of PIK3Cδ/PIK3R1 (O00329 whole entry): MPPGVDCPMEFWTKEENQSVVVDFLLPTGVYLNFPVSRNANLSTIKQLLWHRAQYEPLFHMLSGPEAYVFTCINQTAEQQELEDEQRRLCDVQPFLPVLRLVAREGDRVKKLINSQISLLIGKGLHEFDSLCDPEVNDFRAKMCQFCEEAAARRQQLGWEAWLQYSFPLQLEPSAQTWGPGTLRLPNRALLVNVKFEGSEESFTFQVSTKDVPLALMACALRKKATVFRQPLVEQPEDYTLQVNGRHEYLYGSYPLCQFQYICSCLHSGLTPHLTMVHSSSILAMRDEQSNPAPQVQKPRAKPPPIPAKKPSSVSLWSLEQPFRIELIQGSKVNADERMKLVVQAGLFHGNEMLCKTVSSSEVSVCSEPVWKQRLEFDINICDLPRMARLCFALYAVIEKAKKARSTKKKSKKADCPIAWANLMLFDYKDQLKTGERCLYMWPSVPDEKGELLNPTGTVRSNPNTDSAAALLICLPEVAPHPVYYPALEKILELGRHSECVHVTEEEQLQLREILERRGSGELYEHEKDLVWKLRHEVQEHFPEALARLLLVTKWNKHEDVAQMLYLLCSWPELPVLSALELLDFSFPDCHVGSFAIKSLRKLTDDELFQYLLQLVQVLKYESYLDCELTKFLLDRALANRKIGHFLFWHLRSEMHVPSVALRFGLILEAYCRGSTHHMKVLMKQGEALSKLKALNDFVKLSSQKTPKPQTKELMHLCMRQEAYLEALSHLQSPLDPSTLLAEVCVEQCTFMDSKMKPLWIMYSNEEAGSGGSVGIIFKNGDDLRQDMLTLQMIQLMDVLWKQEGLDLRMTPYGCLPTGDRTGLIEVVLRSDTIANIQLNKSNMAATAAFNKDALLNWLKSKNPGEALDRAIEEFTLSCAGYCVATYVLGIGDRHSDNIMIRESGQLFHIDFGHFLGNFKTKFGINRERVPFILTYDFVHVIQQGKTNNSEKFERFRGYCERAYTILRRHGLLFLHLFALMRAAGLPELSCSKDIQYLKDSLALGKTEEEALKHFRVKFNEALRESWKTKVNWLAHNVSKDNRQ
Chain of PIK3Cδ/PIK3R1 (P27986 whole entry partner): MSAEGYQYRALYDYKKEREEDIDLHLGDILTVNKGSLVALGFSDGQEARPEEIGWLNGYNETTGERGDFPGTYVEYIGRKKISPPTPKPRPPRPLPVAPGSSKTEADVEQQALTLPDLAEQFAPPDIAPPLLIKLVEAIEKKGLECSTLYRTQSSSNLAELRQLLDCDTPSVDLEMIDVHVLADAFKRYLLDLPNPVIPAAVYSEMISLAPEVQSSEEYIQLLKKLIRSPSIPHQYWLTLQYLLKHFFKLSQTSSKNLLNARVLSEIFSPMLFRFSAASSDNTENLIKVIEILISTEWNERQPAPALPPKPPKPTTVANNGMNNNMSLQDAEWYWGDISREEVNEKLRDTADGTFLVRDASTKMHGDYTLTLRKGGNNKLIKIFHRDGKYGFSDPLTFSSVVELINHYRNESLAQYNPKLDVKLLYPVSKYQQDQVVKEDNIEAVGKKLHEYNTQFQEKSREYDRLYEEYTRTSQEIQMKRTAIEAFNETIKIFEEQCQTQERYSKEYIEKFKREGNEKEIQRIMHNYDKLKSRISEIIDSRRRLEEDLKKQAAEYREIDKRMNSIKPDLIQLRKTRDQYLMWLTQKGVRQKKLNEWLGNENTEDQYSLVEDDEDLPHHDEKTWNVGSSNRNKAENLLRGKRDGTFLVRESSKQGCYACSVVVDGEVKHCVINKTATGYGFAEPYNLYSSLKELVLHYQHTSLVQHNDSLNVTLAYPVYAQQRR
Chain of PKC delta (Q05655 whole entry): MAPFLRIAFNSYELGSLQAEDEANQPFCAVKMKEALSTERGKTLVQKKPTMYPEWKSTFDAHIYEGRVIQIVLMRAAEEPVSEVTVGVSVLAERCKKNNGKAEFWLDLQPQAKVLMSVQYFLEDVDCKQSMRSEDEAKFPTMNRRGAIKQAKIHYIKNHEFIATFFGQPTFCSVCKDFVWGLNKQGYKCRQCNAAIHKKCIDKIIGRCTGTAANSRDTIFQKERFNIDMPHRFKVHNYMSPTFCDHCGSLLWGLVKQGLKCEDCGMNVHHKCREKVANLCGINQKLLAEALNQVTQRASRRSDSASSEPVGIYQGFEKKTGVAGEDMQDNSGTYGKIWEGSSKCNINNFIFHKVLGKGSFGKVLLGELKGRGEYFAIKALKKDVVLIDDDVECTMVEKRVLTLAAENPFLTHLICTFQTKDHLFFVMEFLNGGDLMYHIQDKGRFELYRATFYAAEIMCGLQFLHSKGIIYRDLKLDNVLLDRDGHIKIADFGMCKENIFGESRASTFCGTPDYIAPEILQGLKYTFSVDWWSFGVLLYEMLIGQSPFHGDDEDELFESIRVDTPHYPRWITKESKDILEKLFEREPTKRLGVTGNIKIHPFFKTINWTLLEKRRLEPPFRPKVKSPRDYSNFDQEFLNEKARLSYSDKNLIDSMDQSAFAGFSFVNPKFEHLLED
Chain of PKC beta (P05771 whole entry): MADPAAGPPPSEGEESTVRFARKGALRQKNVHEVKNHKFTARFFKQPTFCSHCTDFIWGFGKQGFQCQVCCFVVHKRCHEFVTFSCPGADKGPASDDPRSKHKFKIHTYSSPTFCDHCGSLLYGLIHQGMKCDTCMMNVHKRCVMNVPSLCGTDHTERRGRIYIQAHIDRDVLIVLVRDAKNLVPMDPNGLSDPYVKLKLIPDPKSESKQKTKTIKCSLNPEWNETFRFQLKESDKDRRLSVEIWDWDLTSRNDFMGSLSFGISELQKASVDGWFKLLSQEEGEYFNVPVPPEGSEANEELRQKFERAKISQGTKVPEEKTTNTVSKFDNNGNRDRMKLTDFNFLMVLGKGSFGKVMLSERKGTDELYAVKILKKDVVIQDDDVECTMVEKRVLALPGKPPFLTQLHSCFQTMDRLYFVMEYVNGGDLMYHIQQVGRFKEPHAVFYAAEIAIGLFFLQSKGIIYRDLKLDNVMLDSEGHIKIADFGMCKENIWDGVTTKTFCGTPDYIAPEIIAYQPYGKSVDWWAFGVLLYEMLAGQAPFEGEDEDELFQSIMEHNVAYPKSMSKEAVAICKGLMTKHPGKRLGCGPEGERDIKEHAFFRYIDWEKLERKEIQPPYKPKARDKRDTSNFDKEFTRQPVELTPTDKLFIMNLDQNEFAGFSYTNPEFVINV

Take `CCCCCCCCC#Cc1cccc2c1C[C@@H](CO)NC(=O)[C@H](C(C)C)N2C`: the dissociation constant (Kd) on PKCalpha (PKC alpha, read-out: Kd) is 4530 nM; at PKC beta it was 1690 nM; on PKC gamma (PKC gamma, read-out: Kd), more than 10000 nM; at PKC delta, 2100 nM; on PKC epsilon, 2560 nM.

Take `CCCCc1ccc(C(=O)Nc2ccc3c(c2)N(C)[C@@H](C(C)C)C(=O)NC(CO)C3)cc1` (stereo partly drawn): the equilibrium dissociation constant (Kd) at PKCalpha (PKC alpha, read-out: Kd) was 9.5 nM.

For the compound `CC(C)[C@H]1C(=O)N[C@H](CO)Cc2ccc(NC(=O)/C=C/c3ccccc3)cc2N1C`, the Kd on PKCalpha (PKC alpha, read-out: Kd) is 114 nM.

On to `CC(C)[C@H]1C(=O)NC(CO)Cc2ccc(NC(=O)c3ccc(-c4ccccc4)cc3)cc2N1C` (stereo partly drawn), for which, on PKCalpha (PKC alpha, read-out: Kd), the Kd is 25.9 nM.

In the case of `CCCCC#Cc1ccccc1-c1ccc2c(c1)N(C)[C@@H](C(C)C)C(=O)NC(CO)C2` (stereo partly drawn), at PKCalpha (PKC alpha, read-out: Kd), the equilibrium dissociation constant (Kd) was 3.1 nM.

For `CC(C)[C@H]1C(=O)NC(CO)Cc2ccc(NCc3ccccc3)cc2N1C` (stereo partly drawn), the Kd at PKCalpha (PKC alpha, read-out: Kd) was 3.8 nM.

On to `CCCCCCCCC#Cc1ccc(-c2ccc3c(c2)C[C@@H](CO)NC(=O)[C@H](C(C)C)N3C)cc1`, for which, at PKCalpha (PKC alpha, read-out: Kd), the Kd was 703 nM.

As to `Nc1cc(C(F)(F)F)c(-c2cc(N3CCOCC3)nc(N3CCOCC3)n2)cn1` [Buparlisib], on PIK3Cα/PIK3R1, the ka was 3.26e+06 M⁻¹ s⁻¹, the kd is 0.0209 s⁻¹, the “log(ka)” value is listed as 6.51 and the “log(kd)” value is reported as −1.68.

As for `CCCCCCCCC#Cc1ccc(-c2ccc3c(c2)N(C)[C@@H](C(C)C)C(=O)N[C@H](CO)C3)s1`, the dissociation constant Kd on PKCalpha (PKC alpha, read-out: Kd) is 25 nM.

As to `CC(C)[C@H]1C(=O)N[C@H](CO)Cc2cc(NC(=O)CCCCc3ccc(CCC(F)(F)C(F)(F)C(F)(F)C(F)(F)C(F)(F)C(F)(F)F)cc3)ccc2N1C`, the Kd at PKCalpha (PKC alpha, read-out: Kd) was 9.2 nM.

On to `CC(C)[C@H]1C(=O)N[C@H](CO)Cc2ccc(NC(=O)CCCCc3ccccc3)cc2N1C`, for which, at PKCalpha (PKC alpha, read-out: Kd), the equilibrium dissociation constant (Kd) was 18.3 nM.

Regarding `CO[C@@H](C(=O)N1Cc2n[nH]c(NC(=O)c3ccc(N4CCN(C)CC4)cc3)c2C1)c1ccccc1` [Danusertib], on AurA (AURKA), the ka was 512000 M⁻¹ s⁻¹, the kd is 0.000868 s⁻¹, the “log(ka)” value is reported as 5.71 and the “log(kd)” value is recorded as −3.06.

Regarding `CC(C)[C@H]1C(=O)N[C@H](CO)Cc2cc(NC(=O)CCCCc3ccc(C(F)(F)F)cc3)ccc2N1C`, the Kd at PKCalpha was 12.5 nM.

Take `CC(C)[C@H]1C(=O)N[C@H](CO)Cc2ccc(-c3ccc(NC(=O)OC(C)(C)C)cc3)cc2N1C`: the equilibrium dissociation constant (Kd) at PKCalpha (PKC alpha, read-out: Kd) is 31.5 nM.

Regarding `CC(C)[C@H]1C(=O)N[C@H](CO)Cc2cc(NC(=O)CCCCc3ccc(/C=C/C(F)(F)C(F)(F)C(F)(F)C(F)(F)C(F)(F)C(F)(F)F)cc3)ccc2N1C`, the Kd on PKCalpha (PKC alpha, read-out: Kd) was 11.2 nM.

`Cc1nc(NC(=O)N2CCC[C@H]2C(N)=O)sc1-c1ccnc(C(C)(C)C(F)(F)F)c1` [Alpelisib]: on PIK3Cδ/PIK3R1, the ka is 6.16e+06 M⁻¹ s⁻¹, the kd was 0.0641 s⁻¹, the “log(ka)” value is listed as 6.79 and the “log(kd)” value was −1.19. Besides, on PIK3Cγ, the ka is 4.05e+06 M⁻¹ s⁻¹, the kd was 0.0395 s⁻¹, the “log(ka)” value is recorded as 6.61 and the “log(kd)” value is listed as −1.40.

Consider `CC(C)C1C(=O)NC(CO)Cc2cc(NC(=O)C=CC=Cc3ccccc3)ccc2N1C` (stereo not drawn), for which the Kd at PKCalpha (PKC alpha, read-out: Kd) was 15.8 nM.

On to `CC(C)[C@H]1C(=O)N[C@H](CO)Cc2ccccc2N1C`, for which, on PKCalpha (PKC alpha, read-out: Kd), the Kd was 334 nM.

With `COc1ccc(-c2ccc3c(N4CCOC[C@@H]4C)nc(N4CCOC[C@@H]4C)nc3n2)cc1CO` [AZD-8055], on PIK3Cα/PIK3R1, the equilibrium dissociation constant (Kd) is 9.4 nM, the ka is 3.61e+06 M⁻¹ s⁻¹, the kd is 0.0339 s⁻¹ and the “log(ka)” value was 6.56. Besides, on PIK3Cα/PIK3R1, the “log(kd)” value was −1.47 and the “residence time (τ)” value was 29 s. At PIK3Cδ/PIK3R1, the Kd is 33.6 nM, the ka was 1.93e+06 M⁻¹ s⁻¹, the kd is 0.065 s⁻¹ and the “log(ka)” value is listed as 6.29. On PIK3Cδ/PIK3R1, the “log(kd)” value is given as −1.19 and the “residence time (τ)” value is on record as 15 s. Besides, at PIK3Cγ, the Kd was 92.5 nM, the ka is 1.59e+06 M⁻¹ s⁻¹, the kd is 0.147 s⁻¹ and the “log(ka)” value was 6.20. Also, at PIK3Cγ, the “log(kd)” value is −0.83 and the “residence time (τ)” value was 7 s.

As for `CC(C)[C@H]1C(=O)N[C@H](CO)Cc2cc(NC(=O)CCCCc3ccccc3)ccc2N1C`, the dissociation constant (Kd) on PKCalpha (PKC alpha, read-out: Kd) was 34.2 nM.

Regarding `Cn1c(=O)n(-c2ccc(C(C)(C)C#N)cc2)c2c3cc(-c4cnc5ccccc5c4)ccc3ncc21` [Dactolisib], at PIK3Cα/PIK3R1, the ka was 2.3e+06 M⁻¹ s⁻¹, the kd is 0.0228 s⁻¹, the “log(ka)” value was 6.36 and the “log(kd)” value is recorded as −1.64. In addition, at PIK3Cδ/PIK3R1, the ka was 1.52e+06 M⁻¹ s⁻¹, the kd was 0.0327 s⁻¹, the “log(ka)” value was 6.16 and the “log(kd)” value is −1.49. In addition, on PIK3Cγ, the ka was 589000 M⁻¹ s⁻¹, the kd was 0.0433 s⁻¹, the “log(ka)” value was 5.77 and the “log(kd)” value is −1.36.

Turning to `CCCCCCCCCCc1ccc2c(c1)C[C@@H](CO)NC(=O)[C@H](C(C)C)N2C`, the Kd at PKCalpha was 46.6 nM; at PKC beta it was 58.2 nM; at PKC gamma, 140 nM; on PKC delta it was 185 nM; at PKC epsilon, 187 nM.

`CCCCCCCCCCc1cccc2c1C[C@@H](CO)NC(=O)[C@H](C(C)C)N2C`: the Kd on PKCalpha (PKC alpha, read-out: Kd) is 513 nM; on PKC beta, 309 nM; on PKC gamma (PKC gamma, read-out: Kd), 409 nM; at PKC delta, 169 nM; at PKC epsilon it was 60 nM.

As to `CCCCCCCCC#Cc1ccccc1-c1ccc2c(c1)N(C)[C@@H](C(C)C)C(=O)NC(CO)C2` (stereo partly drawn), at PKCalpha (PKC alpha, read-out: Kd), the Kd was 3.6 nM.

On to `CC(C)[C@H]1C(=O)N[C@H](CO)Cc2ccc(NC(=O)/C=C/C=C/c3ccccc3)cc2N1C`, for which, on PKCalpha (PKC alpha, read-out: Kd), the Kd was 49.8 nM.

As for `CCCCCCCCC#Cc1cccc(-c2ccc3c(c2)N(C)[C@@H](C(C)C)C(=O)N[C@H](CO)C3)c1`, the Kd at PKCalpha (PKC alpha, read-out: Kd) was 5.9 nM.

Take `CCCCCCCCC#Cc1ccc(-c2ccc3c(c2)C[C@@H](CO)NC(=O)[C@H](C(C)C)N3C)s1`: at PKCalpha (PKC alpha, read-out: Kd), the dissociation constant (Kd) is 396 nM.

For the compound `CC(C)[C@H]1C(=O)N[C@H](CO)Cc2cc(NC(=O)CCCCc3cc(C(F)(F)F)cc(C(F)(F)F)c3)ccc2N1C`, the dissociation constant Kd at PKCalpha (PKC alpha, read-out: Kd) was 7.8 nM.

Take `CCCCCCCCc1ccc2c3c(c[nH]c13)CC[C@@H](CO)NC(=O)[C@H](C(C)C)N2C`: the Kd on PKCalpha (PKC alpha, read-out: Kd) was 0.5 nM; on PKC beta, 0.4 nM; on PKC gamma (PKC gamma, read-out: Kd), 1.2 nM; at PKC delta, 0.8 nM; on PKC epsilon, 1 nM.

For the compound `CCCCCCCCc1cccc(C(=O)Nc2ccc3c(c2)N(C)[C@@H](C(C)C)C(=O)NC(CO)C3)c1` (stereo partly drawn), the equilibrium dissociation constant (Kd) on PKCalpha (PKC alpha, read-out: Kd) is 3.2 nM.

For the compound `CCCCC#Cc1cccc(-c2ccc3c(c2)N(C)[C@@H](C(C)C)C(=O)N[C@H](CO)C3)c1`, at PKCalpha (PKC alpha, read-out: Kd), the dissociation constant Kd is 3 nM.

`CC(C)[C@H]1C(=O)NC(CO)Cc2ccc(NC(=O)CCc3ccccc3)cc2N1C` (stereo partly drawn): the Kd at PKCalpha (PKC alpha, read-out: Kd) was 116 nM.

As for `CCCCC#Cc1cccc(C(=O)Nc2ccc3c(c2)N(C)[C@@H](C(C)C)C(=O)NC(CO)C3)c1` (stereo partly drawn), the Kd at PKCalpha (PKC alpha, read-out: Kd) was 4.1 nM.

Take `O=C(O)[C@]1(Cc2cccc(Nc3nccs3)n2)CC[C@@H](Oc2cccc(Cl)c2F)CC1` [MK5108]: at AurA (AURKA), the ka is 3.41e+06 M⁻¹ s⁻¹; the kd was 0.0155 s⁻¹; the “log(ka)” value was 6.53 and 6.56; the “log(kd)” value is −1.81.

For `CC(C)[C@H]1C(=O)N[C@H](CO)Cc2ccc(NC(=O)c3ccccc3)cc2N1C`, the dissociation constant (Kd) on PKCalpha (PKC alpha, read-out: Kd) was 174 nM.

As for `CCCCCCCCC#Cc1cccc(-c2ccc3c(c2)C[C@@H](CO)NC(=O)[C@H](C(C)C)N3C)c1`, the dissociation constant (Kd) at PKCalpha (PKC alpha, read-out: Kd) is 309 nM.
